Laboratory results from ChEMBL document CHEMBL6103654, “Design, Biological Characterization, and Discovery of Capromorelin Derivatives as Oral Growth Hormone Secretagogue Receptor Type 1a Agonist for the Treatment of Growth Hormone Deficiency” (J Med Chem, 2025).
pEC50, pIC50: −log10 of the molar value.

Columns and labels:
[1] = Agonist activity at monkey GHSR expressed in CHO cells incubated for 60 min by FLIPR assay; format: cell-based; conditions: Macaca mulatta, 1 h
[2] = Elimination half life in male Sprague-Dawley rat at 1 mg/kg, iv administered as single dose measured after 4 hrs; format: ADME, organism-based; conditions: in vivo, read-out: beta t1/2 (converted)
[3] = Clearance in male Sprague-Dawley rat plasma at 1 mg/kg, iv administered as single dose measured after 4 hrs; format: ADME, organism-based
Rattus norvegicus [4] = test: Induction of growth hormone level in Juvenile Sprague-Dawley rat blood at 0.1 mg/kg, po administered as single dose measured after 20 mins by ELISA method (reference value: 29.1+/-8.6 ng/mL); format: functional
Rattus norvegicus [5] = test: Induction of growth hormone level in Juvenile Sprague-Dawley rat blood at 0.1 mg/kg, po administered as single dose measured after 40 mins by ELISA method (reference value: 40.1+/-11.0 ng/mL); format: functional
Rattus norvegicus [6] = test: Induction of growth hormone level in Juvenile Sprague-Dawley rat blood at 0.1 mg/kg, po administered as single dose measured after 1 hr by ELISA method (reference value: 45.2+/-12.5 ng/mL); format: functional
Rattus norvegicus [7] = test: Induction of growth hormone level in Juvenile Sprague-Dawley rat blood at 0.2 mg/kg, po administered as single dose measured after 1 hr by ELISA method (reference value: 45.2+/-12.5 ng/mL); format: functional
Rattus norvegicus [8] = test: Induction of growth hormone level in Juvenile Sprague-Dawley rat blood by measuring AUC(0 to 40 mins) at 0.5 mg/kg, po administered as single dose by ELISA method (reference value: 20.2+/-4.3 ng/mL); format: functional, organism-based
Rattus norvegicus [9] = test: Induction of growth hormone level in adult Sprague-Dawley rat blood at 0.1 mg/kg, po administered as single dose measured immediately by ELISA method (reference value: 12.6+/-4.4 ng/mL); format: functional
Rattus norvegicus [10] = test: Induction of growth hormone level in adult Sprague-Dawley rat blood by measuring AUC(0 to 40 mins) at 0.5 mg/kg, po administered as single dose by ELISA method (reference value: 7.0+/-1.7 ng/mL); format: functional, organism-based
Rattus norvegicus [11] = test: Induction of growth hormone level in adult Sprague-Dawley rat blood at 0.2 mg/kg, po administered as single dose measured immediately by ELISA method (reference value: 12.6+/-4.4 ng/mL); format: functional
Rattus norvegicus [12] = test: Induction of growth hormone level in adult Sprague-Dawley rat blood by measuring AUC(0 to 40 mins) at 0.2 mg/kg, po administered as single dose by ELISA method (reference value: 7.0+/-1.7 ng/mL); format: functional, organism-based
Rattus norvegicus [13] = test: Induction of growth hormone level in adult Sprague-Dawley rat blood at 0.5 mg/kg, po administered as single dose measured immediately by ELISA method (reference value: 12.6+/-4.4 ng/mL); format: functional
Rattus norvegicus [14] = test: Induction of growth hormone level in adult Sprague-Dawley rat blood at 0.5 mg/kg, po administered as single dose measured after 10 mins by ELISA method (reference value: 13.7+/-7.2 ng/mL); format: functional
Rattus norvegicus [15] = organism: Rattus norvegicus; test: Induction of growth hormone level in 6 week-old Sprague-Dawley rat assessed as increase in body length measured after 10 days; format: functional, organism-based; conditions: time 10.0 day
[16] = Half life in male monkey at 0.5 mg/kg, iv administered as single dose measured after 4 hrs; format: ADME, organism-based, Macaca mulatta; conditions: rhesus monkey, in vivo
[17] = Half life in male dog at 0.5 mg/kg, iv administered as single dose measured after 4 hrs; format: ADME, organism-based, Canis lupus familiaris; conditions: in vivo
[18] = Volume of distribution in male dog at 0.5 mg/kg, iv administered as single dose measured after 4 hrs; format: ADME, organism-based, Canis lupus familiaris; conditions: in vivo
[19] = Half life in male dog at 2 mg/kg, po administered as single dose measured after 4 hrs; format: ADME, organism-based, Canis lupus familiaris; conditions: in vivo
[20] = AUC in male dog at 2 mg/kg, po administered as single dose measured after 4 hrs; format: ADME, organism-based, Canis lupus familiaris; conditions: in vivo
[21] = Clearance in male mouse plasma at 1 mg/kg, iv administered as single dose measured after 4 hrs; format: ADME, organism-based
[22] = AUC in male mouse at 2 mg/kg, po administered as single dose measured after 4 hrs; format: ADME, organism-based; conditions: in vivo
[23] = Metabolic stability in monkey liver microsome assessed as intrinsic clearance at 1 uM measured upto 60 mins in presence of NADPH by LC-MS/MS analysis; format: ADME, Macaca mulatta; conditions: rhesus monkey, liver microsomes, read-out: CLH
[24] = Metabolic stability in dog liver microsome assessed as intrinsic clearance at 1 uM measured upto 60 mins in presence of NADPH by LC-MS/MS analysis; format: ADME, Canis lupus familiaris; conditions: liver microsomes, read-out: CLH
[25] = Metabolic stability in dog liver microsome assessed as hepatic clearance at 1 uM measured upto 60 mins in presence of NADPH by LC-MS/MS analysis; format: ADME, Canis lupus familiaris; conditions: liver microsomes, read-out: CLH
[26] = Metabolic stability in mouse liver microsome assessed as half life at 1 uM measured upto 60 mins in presence of NADPH by LC-MS/MS analysis; format: ADME; conditions: liver microsomes
[27] = Metabolic stability in mouse liver microsome assessed as hepatic clearance at 1 uM measured upto 60 mins in presence of NADPH by LC-MS/MS analysis; format: ADME; conditions: liver microsomes, read-out: CLH
[28] = Plasma protein binding in monkey assessed as unbound fraction measured after 6 hrs by dialysis method; format: ADME, cell-free, Macaca mulatta; conditions: rhesus monkey
Cytochrome P450 3A4 = Cytochrome P450 3A4 (Homo sapiens, UniProt P08684); test: Inhibition of CYP3A4 in human liver microsome using testosterone as substrate incubated for 5 min in presence of NADPH by UPLC-MS/MS analysis; format: ADME, microsomes
[29] = biological target: T1, 5-hydroxytryptamine receptor 3A (Homo sapiens, UniProt P46098); test: Inhibition of human HTR3A by fluorimetry analysis
T1 sequence (P46098 whole entry): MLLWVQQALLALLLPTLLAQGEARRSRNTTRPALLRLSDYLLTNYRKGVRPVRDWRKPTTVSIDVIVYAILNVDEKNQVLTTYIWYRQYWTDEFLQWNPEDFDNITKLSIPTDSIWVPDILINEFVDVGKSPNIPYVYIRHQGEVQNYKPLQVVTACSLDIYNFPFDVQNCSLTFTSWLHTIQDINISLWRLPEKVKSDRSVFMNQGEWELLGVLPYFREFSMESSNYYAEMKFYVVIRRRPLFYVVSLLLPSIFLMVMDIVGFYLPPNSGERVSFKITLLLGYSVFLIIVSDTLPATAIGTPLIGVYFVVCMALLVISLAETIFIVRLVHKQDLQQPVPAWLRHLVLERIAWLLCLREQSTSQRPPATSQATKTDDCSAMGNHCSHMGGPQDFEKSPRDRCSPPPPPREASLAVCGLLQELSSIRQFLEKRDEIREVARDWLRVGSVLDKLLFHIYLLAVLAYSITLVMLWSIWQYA

[30] = Toxicity in Sprague-Dawley rat assessed as effect on red pulp with a network of sinuses filled with erythrocytes at 10 to 100 mg/kg, po administered once daily for 14 days by H&E staining based analysis; format: organism-based; conditions: in vivo, 336 h, dose 10-100 mg/kg, time 14 day
[31] = Toxicity in Sprague-Dawley rat assessed as change in hepatic structure by measuring hepatic lobules at 10 to 100 mg/kg, po administered once daily for 14 days; format: organism-based; conditions: in vivo, 336 h, dose 10-100 mg/kg, time 14 day

Cytochrome P450 3A4, sequence (P08684 whole entry): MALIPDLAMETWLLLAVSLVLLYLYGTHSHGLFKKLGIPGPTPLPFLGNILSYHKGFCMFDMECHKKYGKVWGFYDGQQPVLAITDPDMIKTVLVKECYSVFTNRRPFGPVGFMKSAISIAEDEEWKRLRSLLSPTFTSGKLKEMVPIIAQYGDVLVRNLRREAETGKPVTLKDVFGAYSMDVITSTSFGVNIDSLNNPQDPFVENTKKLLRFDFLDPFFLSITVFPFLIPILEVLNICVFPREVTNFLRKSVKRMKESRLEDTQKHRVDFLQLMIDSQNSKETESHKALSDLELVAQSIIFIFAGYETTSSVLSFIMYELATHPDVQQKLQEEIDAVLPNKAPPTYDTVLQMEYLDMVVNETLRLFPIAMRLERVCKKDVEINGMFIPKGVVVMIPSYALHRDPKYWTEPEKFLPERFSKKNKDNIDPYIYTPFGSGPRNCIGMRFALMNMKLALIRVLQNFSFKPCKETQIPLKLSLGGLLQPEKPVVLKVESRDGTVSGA

Compound: CC(C)(N)C(=O)N[C@H](COCc1ccccc1)C(=O)N1CCC2=NN(C3CC3)C(=O)[C@]2(Cc2ccccc2)C1
- pEC50 [1]: 10.34
- half-life [2]: 64.2 min
- clearance [3]: 28.9 mL/min/kg
- Activity (Rattus norvegicus [4]): 263.6 ng/mL
- Activity (Rattus norvegicus [5]): 74.5 ng/mL
- Activity (Rattus norvegicus [6]): 37.8 ng/mL
- Activity (Rattus norvegicus [7]): 45.9 ng/mL
- AUC (Rattus norvegicus [8]): 110 ng·h/mL
- Activity (Rattus norvegicus [9]): 21.2 ng/mL
- AUC (Rattus norvegicus [10]): 62.8 ng·h/mL
- Activity (Rattus norvegicus [11]): 22 ng/mL
- AUC (Rattus norvegicus [12]): 62.6 ng·h/mL
- Activity (Rattus norvegicus [13]): 14 ng/mL
- Activity (Rattus norvegicus [14]): 238.6 ng/mL
- Activity (Rattus norvegicus [15]): Dose-dependent-effect
- half-life [16]: 46.8 min
- half-life [17]: 56.4 min
- Vd [18]: 2.88 L/kg
- half-life [19]: 71.4 min
- AUC at 4 h [20]: 406 ng·h/mL
- clearance [21]: 124 mL/min/kg
- AUC at 4 h [22]: 93.1 ng·h/mL
- microsomal CLint at 1 µM [23]: 451 µL/min/mg
- microsomal CLint at 1 µM [24]: 134 µL/min/mg
- CLint scaled at 1 µM [25]: 237 mL/min/kg
- half-life at 1 µM [26]: 4.2 min
- CLint scaled at 1 µM [27]: 1370 mL/min/kg
- fraction unbound at 6 h [28]: 0.46
- pIC50 (Cytochrome P450 3A4): < 4.52
- pIC50 [29]: 5.51
- Activity [30]: Non-toxic
- Activity [31]: Non-toxic
